One substance from patent US11484599B2, “Polymer conjugate vaccines” (The University of Chicago, priority 2015, dated 2022) can be followed below.

Experiment [1] concerns OVA-specific immune response. Nature of the experiment: OVA vaccination day 0 and 28, humoral immune response. Format: in vivo, mice. How it is done:
(§1) Mice were immunized on day 0 and 28 with one of […] formulations: 1.) 10 μg of OVA+30 μg, 2.) p(Man-TLR) (30 μg equivalent of TLR7-MA), 3.) 10 μg of OVA and unconjugated p(Man-TLR) (30 μg equivalent of TLR7-MA), 4.) 10 μg of OVA-p(Man) conjugate with 30 μg of TLR7-MA, or 5.) 10 μg of OVA-p(Man-TLR).
In order to initiate protection against extracellular microorganisms and to prevent the spread of intracellular infections, effective vaccines preferably induce a strong humoral immune response. The ability of OVA-p(Man-TLR) to mount an effective humoral immune response was analyzed by determining the percentage of T follicular helper (Tfh) cells in the LN and spleen, the number of antigen specific plasma cells in the spleen, and the OVA specific antibody titers of vaccinated mice. […] Given these impressive results, we analyzed the blood of vaccinated animals for total OVA-specific IgG titers as well as OVA-specific IgG2C titers.

Experiment [2] has as its system OVA-specific immune response. Nature of the experiment: Example 11: in vivo immune response after footpad vaccination with OVA formulations. Also noted: species or system mice. The method, then: FIG. 14: Mice were vaccinated at day 0 and day 28 with 10 μg OVA equivalent of the various forms and combinations shown, and were sacrificed on day 35 for analysis. The intensity of the CD8+ T cell response was judged by measuring the frequency of […] (SEQ ID NO. 1) pentamer-binding cells.
FIG. 15: Mice were vaccinated at day 0 and day 28 with 10 μg OVA equivalent of the various forms and combinations shown, and were sacrificed on day 35 for analysis. The cytokine responsiveness of cells in the LN was determined after antigen re-exposure. […] Separation of the formulation into its component parts was not effective: of particular note, free antigen mixed with but not conjugated to the p(Man-TLR) nanoadjuvant (OVA+pManTLR, yellow) was not nearly as effective, showing the need for the conjugate.
FIG. 16: The humoral response to vaccination was characterized by measuring the frequency of antibody-producing plasma cells and the frequency of Tfh cells in the spleen, and the antibody titers in the blood.
Mice were vaccinated in the four footpads on day 0 and 28 with either OVA-p(Man-TLR), OVA and mTLR, OVA conjugated to p(Man) (OVA-p(Man)) and mTLR, OVA+p(Man-TLR) or just p(Man-TLR). Animals treated with formulations containing OVA received 10 μg of OVA in its free or conjugated form, and animals treated with formulations containing TLR received 30 μg of TLR in its free or […] form. The animals were sacrificed on day 35 and the spleens and lymph nodes were analyzed for the resulting immune response.

The test system of the next experiment is DCs (CD11c+ cells). Nature of the experiment: Example 10: in vivo DC activation in draining lymph nodes after footpad injection. Also on record: species or system mice. To be noted: footpads, 50 μg fluorescently-labeled OVA, 24 h. From the text: Activation is highest in DCs that collect the formulation and thus are also antigen-positive. Thus, both antigen and adjuvant are co-delivered to the same DCs, which are then the cells that are activated. This is one of the benefits of selecting TLR7 as an adjuvant target, based on its intracellular, endosomal localization.
In order to be an effective adjuvant/delivery system for vaccine development, p(Man-TLR) conjugates preferably target antigens to APCs and activate these cells in vivo. Mice were injected in the footpads with 50 μg of fluorescently-labeled OVA conjugated to p(Man-TLR) or free non-conjugated fluorescently-labeled OVA. After 24 h, the draining lymph nodes of these animals were collected and processed into single cells suspensions. The lymphocytes were then analyzed via flow cytometry for the presence of the co-stimulatory molecule markers CD86 and CD80 on APCs. […] Furthermore, CD11c+ cells that had taken up OVA-p(Man-TLR) conjugates (i.e., Protein+CD11c+ cells) had higher levels of expression of CD80 and CD86 as compared to the expression of CD80 and CD86 on the total CD11c+ population of mice treated with OVA-p(Man-TLR).

Experiment [3] deals with OVA-specific immune response. Nature of the experiment: OVA vaccination day 0 and 28, T cell response after restimulation. It counts as in vivo, mice. The method, then:
as §1
Given the ability of p(Man-TLR) to activate BMDCS and target tethered proteins to various DC-subsets, mice were treated with OVA-p(Man-TLR) and the OVA-specific immune response was analyzed. Animals were treated on day 0 and 28 with an i.d. injection of OVA-p(Man-TLR), OVA-p(Man)+TLR7-MA, OVA and unconjugated p(Man-TLR), p(Man-TLR), or OVA+CpG. Mice receiving formulations that contained either free or polymer-conjugated OVA were treated with 10 μg of OVA on days 0 and 28. Mice treated with formulations containing either TLR7-MA or p(man-TLR) either free or OVA conjugated received 30 μg of TLR7-agonist as TLR7-MA or the total weight of TLR7-MA monomer units in the polymer on days 0 and 28. Mice treated with OVA and CPG received 30 μg of CPG on days 0 and 28. After 35 days, the lymphocytes from the spleen and lymph node were harvested and restimulated with either whole OVA or the CD8 immunodominant peptide […].

For a further experiment, the system named is B16F10/OVA tumors. Nature of the experiment: Example 13: cancer vaccination in mice bearing B16F10/OVA tumors. It counts as in vivo, C57BL/6 mice. The method, then:
In order to determine if OVA-p(Man-TLR) conjugates could inhibit the growth of OVA-expressing tumors, mice bearing B16F10/OVA tumors (that is, B16F10 melanoma cells expressing the xeno-antigen OVA as a model tumor antigen) were treated with OVA-p(Man-TLR). 10^5 B16F10/OVA cells were inoculated subcutaneously (s.c.) between the scapulae in C57BL/6 mice on day 0 and left to engraft and grow for 4 days. On day 4, 7, and 14, mice were administered saline or vaccinated with OVA-p(Man-TLR) or OVA and free p(Man-TLR). Animals treated with OVA received 10 μg OVA and 40 μg of TLR.

“OVA-p(Man-TLR): model antigen ovalbumin (OVA) conjugated to p(Man-TLR) via self-immolative linker”: the “total OVA-specific IgG and IgG2C titers vs other vaccine formulations” value in experiment [1] (blood of vaccinated animals) was “significant increase in both total IgG and IgG2C titers”. In addition, the “increase in number of IgG-producing plasma cells vs OVA+p(Man-TLR) or other formulations” value in experiment [1] (day 35, spleen, FIG. 11C) is reported as “more than 2 fold”. The “percentage of Tfh in lymph node and spleen vs other treatments” value in experiment [1] (day 35, vaccination on days 0 and 28) is “significantly increases the percentage of Tfh in the lymph node and spleen”. The “OVA-specific total IgG vs non-conjugate vaccine (OVA+pMan-TLR)” value in experiment [2] (FIG. 16) was “elevated by more than an order of magnitude”. In experiment [2] (day 35), the “CD8+ and CD4+ T cells positive for both TNFα and IFNγ upon restimulation vs other treatments” value is “significantly more CD8+ and CD4+ T cells that are positive for both the proinflammatory cytokines TNFα and IFNγ”; the “OVA-specific antibodies in the blood vs other treatments” value was “significantly more OVA-specific antibodies in the blood”; the “splenic IgG producing plasma cells and T follicular helper cells vs other treatments” value is “significantly more splenic IgG producing plasma cells and T follicular helper cells”. Also, the “OVA pentamer+ cells in lymph nodes and spleens vs other therapies” value in experiment [2] (footpads day 0 and 28, 10 μg OVA, 30 μg TLR, day 35) was “significantly more OVA pentamer+ cells in the lymph nodes and spleens”. In addition, the “CD80 and CD86 expression on CD11c+ cells of draining lymph nodes vs free OVA” value in the experiment with DCs (CD11c+ cells) was “express significantly more CD80 and CD86”. In experiment [3] (i.d. day 0 and 28, 10 μg OVA, 30 μg TLR7-agonist, day 35), the “IFNγ+CD4+ T cells after restimulation vs other treatments” value is on record as “significantly more IFNγ+CD4+ T cells”. Besides, in experiment [3] (i.d. day 0 and 28, day 35), the “IFNγ+CD8 T cells in the lymph nodes vs OVA-p(Man)+TLR7-MA and OVA+CpG” value is given as “increased the number of IFNγ+CD8 T cells in the lymph nodes”; the “TNFα positive CD8+ and CD4+ T cells in restimulated splenocytes vs other TLR7-MA or p(Man-TLR) formulations” value is “significantly increased the number of CD8+ and CD4+ T cells that are positive for TNFα”. In the experiment on B16F10/OVA tumors (treated day 4, 7 and 14, 10 μg OVA and 40 μg of TLR), the “growth of B16/OVA tumors” value was “capable of inhibiting the growth of B16/OVA tumors”. For the same substance, in the experiment on B16F10/OVA tumors (tumor-bearing mice), the “pentamer+CD8+ cells in the draining lymph nodes vs OVA+p(Man-TLR)” value is listed as “induced significantly more pentamer+CD8+ cells in the draining lymph nodes”. Also, the “percentage of OVA pentamer+ cells in the draining lymph nodes” value in the experiment on B16F10/OVA tumors (tumor-bearing mice, FIG. 20) is listed as “increased the percentage of OVA pentamer+ cells in the draining lymph nodes”.
